# Test results taken from patent publication US20130040952A1 (priority 2011, published 2013).
# Where a SMILES comes first, the peptide text is derived from it. Bridges are numbered along the chain shown (N, C = ends).
# Key:
# [1] = Cytotoxicity assay in MDCK cells (MTS); format: cell-based; details: dog; concentration needed to inhibit 50% growth of MDCK cells in 48 h
# Protocol: In a 96-well plate, 1×10^4 MDCK cells were seeded per well and incubated for 24 h at 37° C. The MDCK cells were then incubated with compounds for 48 h at 35° C. The number of metabolically viable cells was determined by the MTS assay (Promega).
# NP WT trimer = NP WT trimer (Influenza A virus, UniProt P15682); format: binding, influenza A virus (WSN)
# NP WT trimer, sequence (P15682 whole entry, looked up): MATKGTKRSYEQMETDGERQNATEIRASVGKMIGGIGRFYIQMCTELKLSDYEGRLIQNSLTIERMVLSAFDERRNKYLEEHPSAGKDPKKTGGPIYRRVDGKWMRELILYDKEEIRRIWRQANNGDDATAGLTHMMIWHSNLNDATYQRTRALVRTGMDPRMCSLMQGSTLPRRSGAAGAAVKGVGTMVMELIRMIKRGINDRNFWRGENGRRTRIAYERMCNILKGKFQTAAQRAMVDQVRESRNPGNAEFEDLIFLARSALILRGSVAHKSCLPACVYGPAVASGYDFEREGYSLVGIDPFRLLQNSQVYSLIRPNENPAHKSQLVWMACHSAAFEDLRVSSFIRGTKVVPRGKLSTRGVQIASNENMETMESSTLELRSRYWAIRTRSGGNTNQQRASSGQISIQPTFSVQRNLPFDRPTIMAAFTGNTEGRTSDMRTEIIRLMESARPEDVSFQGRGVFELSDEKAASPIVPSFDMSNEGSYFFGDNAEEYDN
# [2] = system: RDRP activity of WSN virus; format: biochemical, Influenza virus A/WSN/33 (H1N1)
# WSN virus = assay: microbe, parasite or virus in culture; details: unidentified influenza virus, MDCK, 48 h, read-out: IC50 (μM), antiinfluenza
# rWSN virus (parental) = assay: microbe, parasite or virus in culture; format: cell-based; details: unidentified influenza virus, MDCK, 48 h, read-out: Anti-rWSN IC50 (μM), parental
Molecule,CC50 at 48 h [1] [µM],effect of peptides on WT NP trimerization (AUC) (NP WT trimer),inhibition of viral transcription activity [2],effect of compounds on NP WT trimer (AUC) (NP WT trimer),IC50 (WSN virus) [µM],IC50 (rWSN virus (parental)) [µM]
CC(C)[C@@H]1NC(=O)[C@H](CO)NC(=O)[C@H](Cc2ccccc2)NC(=O)[C@H]([C@@H](C)O)NC(=O)[C@@H](N)CSSC[C@@H](C(=O)O)NC(=O)[C@H](CC(N)=O)NC(=O)[C@H](CCCNC(=N)N)NC(=O)[C@H](CCC(N)=O)NC1=O [peptide 2],> 2000,the effect was substantially enhanced,reduce the viral transcription activity,,,
CC(C)C[C@@H]1NC(=O)[C@H](CC(N)=O)NC(=O)[C@H](CCCNC(=N)N)NC(=O)[C@H](CCC(N)=O)NC(=O)[C@H](C(C)C)NC(=O)[C@H](CO)NC(=O)[C@H](Cc2ccccc2)NC(=O)[C@H]([C@@H](C)O)NC(=O)[C@@H]2CCCN2C(=O)[C@H](CCC(N)=O)NC(=O)[C@@H](N)CSSC[C@@H](C(=O)O)NC1=O [peptide 3] (H-CQPTFSVQRNLC-OH; disulfide 1-12),> 2000,showed a slightly greater effect,reduce the viral transcription activity,,,
TFDSVQRN [peptide 1],,disrupted WT NP trimerization only slightly,,,,
"Cc1onc(-c2ccccc2)c1C(=O)N1CCN(c2ccc([N+](=O)[O-])cc2Cl)CC1 [nucleozin, reference compound]",,,,caused aggregation of the NP trimer,,
CCCCCC(=O)NCC(=O)Nc1cc(Cl)ccc1Cl [compound 3],> 100,,,able to disrupt NP trimerization and induce formation of NP monomers,118,
CCCCCCCCC(=O)NCC(=O)Nc1cccc(F)c1 [compound 2],> 100,,,able to disrupt NP trimerization and induce formation of NP monomers,37.5,
Cc1cccc(CSc2nc(=O)n(CCCO)c3c2CCC3)c1 [compound 4],> 100,,,able to disrupt NP trimerization and induce formation of NP monomers,39.7,
O=C(NCCCN1CCOCC1)c1csc(Nc2ccc(Cl)c(Cl)c2)n1 [compound 1],35.6,,,able to disrupt NP trimerization and induce formation of NP monomers,2.7,1.7
